Test results from patent US20130158024A1, “TRICYCLIC NECROSTATIN COMPOUNDS” (priority 2005, published 2013).
Entries after “also recorded” stand apart in the source; their conditions may differ. Where two headings read alike, the source gives them in different places.

Tests used:
[1] = system: B cell; test: B cell activation (LPS/IL-4) of splenocytes suppressed by zVAD.fmk, FACS; format: cell-based, mouse; details: 100 μM zVAD.fmk, 30 μM compound, 72 hours
Experimental: Cells were stained with αB220-FITC antibody (Pharmingen), and B cell numbers were determined by FACS. Cell numbers are normalized to the number of cells in unstimulated control, which was set as 100%.

[2] = system: L929 cells; test: TNFα-induced CICD of L929 cells, ATP assay; format: cell-based, mouse; details: no caspase inhibitor
Experimental: Cell viability was determined using ATP-Lite-M ATP assay (Packard). The values represent viability relative to the control lacking TNFα, which was set as 100% viability.
Cell viability in this and subsequent panels was determined by ATP-based viability assay. Numbers represent percentages of the live cells normalized to those in the untreated control wells. Throughout, error bars represent standard deviations. […] Numbers represent viability normalized to that of the corresponding compound-treated cells in the absence of FasL. […] Numbers represent viability normalized to that of the corresponding compound-treated cells in the absence of dimerizer. […] Cells were treated with TNFα (E, F, H), zVAD.fmk (E, F), or CHX (F) for 16 (F) or 24 (E, H) hours. Numbers represent viability normalized to that of the compound-treated cells in the absence of TNFα.

[3] = system: FADD-deficient Jurkat T cells treated with TNF-α; test: Inhibition of necroptosis (CICD) in FADD-deficient Jurkat T cells treated with TNF-α, ATP-based viability; format: cell-based, human
[4] = system: healthy cells; test: Effect of compound alone on physiology of healthy cells (ATP, morphology, cell cycle, mRNA, ROS); format: cell-based
Experimental: Results of the forward and side scatter FACS analysis are shown. In addition, percentage of PI negative viable cells (±SD value) was determined in each sample. […] Numbers of PI negative viable cells (±SD value) in each sample are shown. […] FADD-deficient Jurkat cells were treated as described in FIG. 31A and cell cycle profiles were analyzed by PI DNA content FACS analysis. […] Cell viability was determined using ATP assay. Numbers represent viability normalized to that of the corresponding DMSO-treated cells. Error bars indicate standard deviation values. […] Cells were fixed, embedded and analyzed using electron microscopy. Representative images are shown. […] Cells were stained with dyhydroethydium (Molecular Probes) and analyzed by FACS. Percentages (±SD value) of cells with increased ROS levels are shown. […] Red dots are internal reference controls.
Cells were fixed and stained with anti-giantin (Golgi, green)/anti-KDEL (ER, red) antibodies (FIG. 32A), anti-β-tubulin (tubulin, green)/TO-PRO-3 dye (nuclei, blue)/phalloidin-TRITC (actin, red) (FIG. 32B) and anti-cytochrome c (mitochondria, red)/TO-PRO-3 (nuclei, blue) (FIG. 32C). […]
After the appropriate treatment, we washed Jurkat cells once, resuspended them in PBS, and fixed the cells by adding four volumes of ice cold 100% ethanol. […] We analyzed the data using ModFit software (Verity Software House).

[5] = system: FADD deficient JK cells; test: MNNG-induced death of FADD deficient JK cells; format: cell-based, human; details: 30 μM Nec-1, 5 hours
[6] = system: LC3-II; test: LC3-II induction (autophagy marker) in cultured cells, western blotting; format: cell-based
Text: FIG. 11 is a set of gels showing the detection of cleaved LC3 in CICD of cultured cells and in ischemic brain injury. […] Equal amounts of cellular proteins were subjected to SDS-PAGE and western blotting with anti-LC3 and tubulin antibodies. Arrows point to the LC3II. […] Isoflurane-anesthetized SV-129 mice were subjected to two hours transient middle cerebral artery (MCA) occlusion by the intraluminal filament techniques. Ischemic and contralateral areas of the brain were collected at indicated times following MCA, lysed in RIPA buffer and equal amount of total protein were subjected to western blotting using anti-LC3 and tubulin antibodies. FIG. 11C is similar to FIG. 11B, except that mice were injected with 2 μL of 4 mM 7-Cl-Nec-1 icy at four and six hours, and brains were collected at eight hours after occlusion.
In this and subsequent panels, cell viability was determined via ATP assay. Numbers represent viability normalized to that of the DMSO-treated cells in the absence of TNFα and menadione. Throughout, error bars represent standard deviations. […] Representative images are shown. […] The ratio of LC3-II to tubulin signals was calculated (“Ratio”) and normalized to the value in the control sample. […] In FIG. 28H, expression of beclin-1 (“Bec”) and tubulin (“Tub”) in the stable populations of cells in FIG. 28G was analyzed by western blotting.

[7] = system: primary cortical neurons; test: Oxygen-glucose deprivation (OGD) induced death of primary cortical neurons, MAP2 cytoblot; format: cell-based; details: OGD 90 minutes, 24 hours recovery; 30 μM
Experimental: Cells were allowed to recover in the presence of the compounds (except for the CNQX/MK801) for 24 hours, and specific neuronal viability was determined using MAP2 cytoblot. Values represent the percentages of live cells normalized to the compound treated cells, which were maintained in glucose-containing, non-deoxygenated media. **—P<0.02. […] Cells were allowed to recover in the presence of the compounds for 24 hours, and specific neuronal viability was determined using MAP2 cytoblot. Values represent the percentages of live cells normalized to the compound treated cells, which were maintained in glucose-containing, non-deoxygenated media. **—P<0.04.

[8] = biological target: T1, RIP2 (Homo sapiens, UniProt O43353); test: In vitro kinase assay: autophosphorylation of RIP2; format: biochemical; details: RIP2-Myc from transfected 293T cells
T1 construct: expressed in transfected cells; host or cells: 293T
Text: 293T cells were transfected with RIP-FLAG or RIP2-Myc vectors. […] Major bands corresponding to phosphorylated RIP, RIP2, asterisks, and IgG are shown.

[9] = system: Primary mouse CD4+ and CD8+ T cells; test: Activation-induced cell death (AICD) of primary CD4+ and CD8+ T cells; format: cell-based
Experimental: Cell viability was assessed using Sytox Green (Molecular Probes) (CD8) or propidium iodide exclusion (CD4) assays in FIG. 17A or ATP assay in FIG. 17B. Numbers represent the percentages of live cells normalized to the corresponding compound treated controls lacking αCD3.

T1 sequence (O43353 whole entry, species assumed): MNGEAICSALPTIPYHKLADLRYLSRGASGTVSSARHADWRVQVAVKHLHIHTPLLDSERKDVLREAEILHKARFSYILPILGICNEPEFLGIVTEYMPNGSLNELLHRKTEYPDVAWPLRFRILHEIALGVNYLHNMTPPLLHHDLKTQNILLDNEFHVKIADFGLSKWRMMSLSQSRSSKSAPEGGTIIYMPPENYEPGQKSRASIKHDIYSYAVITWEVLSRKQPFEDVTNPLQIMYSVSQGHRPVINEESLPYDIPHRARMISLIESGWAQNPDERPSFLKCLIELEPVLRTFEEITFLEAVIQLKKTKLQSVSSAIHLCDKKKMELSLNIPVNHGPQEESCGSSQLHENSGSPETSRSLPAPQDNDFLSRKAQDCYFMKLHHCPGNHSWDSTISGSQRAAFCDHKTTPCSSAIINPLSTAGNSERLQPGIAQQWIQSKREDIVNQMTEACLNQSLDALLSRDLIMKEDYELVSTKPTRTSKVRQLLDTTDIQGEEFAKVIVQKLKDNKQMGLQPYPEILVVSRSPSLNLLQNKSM

methylthiohydantoin-tryptophane [Nec-1] was tested, and the “B cell activation in the presence of zVAD.fmk, in words” value [1] was “promotes B cell activation; also recorded: attenuated suppression of B cell activation by zVAD.fmk”, the “protection of L929 cells from TNFα-induced CICD, in words” value [2] was “protects L929 cells from CICD; also recorded: unlike Nec-1; also recorded: efficiently inhibited the TNFα-induced necrotic death of L929 cells” and the EC50 ([3]; 10 ng/mL human TNF-α, 24 hours, ATP-based viability, EC50 ± SD from at least two independent experiments, read-out: EC50 (μM) for inhibition of necroptosis) was 0.05 µM. For the same substance, the “antinecroptotic (anti-CICD) activity, in words” value ([3]; FADD-deficient Jurkat cells, TNFα) was “allowed proliferation of TNFα-treated FADD-deficient cells at a rate indistinguishable from untreated cells; also recorded: prevented the death of TNFα-treated FADD-deficient Jurkat cells”, the EC50 ([3]; Jurkat FADD deficient cells treated with TNFα, read-out: EC50) was 0.494 µM and the EC50 ([3]; concentration required to rescue 50% of cell death, TNFα for 36 hours, ATP assay, read-out: EC50) was 0.494 µM. The “general effect in healthy cells, in words” value [4] was “does not significantly affect gene expression in Jurkat cells; also recorded: had no general effect in healthy cells”, the “protection from MNNG-induced death, in words” value [5] was “failed to protect cells from DNA alkylating agent 1-methyl-3-nitro-1-nitrosoguanidine (MNNG)-induced death” and the “LC3-II induction caused by rapamycin, in words” value ([6]; BALB/c 3T3 cells, 2 μM rapamycin) was “had no effect on the LC3-II induction caused by rapamycin”. For the same substance, the “necroptotic LC3-II induction in cells, in words” value ([6]; necroptotic stimuli (TNFα, TNFα-zVAD.fmk, FasL-zVAD.fmk)) was “the appearance of LC3II was efficiently inhibited by Nec-1; also recorded: efficiently blocked the necroptotic LC3-II induction”, the “protection from OGD-induced neuronal death, in words” value [7] was “protects primary cortical neurons from oxygen-glucose deprivation induced cell death; also recorded: attenuated OGD-induced death of cortical neurons” and the “effect on RIP2 autophosphorylation, in words” value [8] was “lack of a Nec-1 effect on RIP2 autophosphorylation; also recorded: had no effect on RIP2 autophosphorylation”. For the same substance, the “effect on AICD together with zVAD.fmk, in words” value ([9]; 100 μM zVAD.fmk and 30 μM Nec-1, 48 hours) was “inhibition of AICD by Nec-1; also recorded: together efficiently abrogated cell death” and the “effect on AICD, compound alone, in words” value ([9]; re-activated CD4+ cells) was “displayed very little effect on the viability of re-activated T cells in the absence of zVAD.fmk”.
